Results as given in patent US20080075786A1, “Antimicrobial agents derived from cream” (Universite de Montreal, priority 2006, published 2008).
Where two headings read alike, the source gives them in different places.

What was measured:
[1] = system: Candida albicans SC5314 strain; test: Germination inhibition assay (antihyphal growth activity); type: cell-based; conditions: for MIC: commercial free fatty acids, gravimetrical quantification, read-out: MIC, antihyphal growth activity of individual free fatty acids
Method: The Candida albicans SC5314 strain (Fonzi, W. A. and Irwin, M. Y. 1993. Isogenic strain construction and gene mapping in Candida albicans. Genetics 134: 717-728.) was used to investigate the antihyphal activity of whey cream lipids. This strain was routinely grown as yeast cells at 30° C. in YPD medium (1% yeast extract, 2% peptone, 2% dextrose). Germination was induced by incubating cells in dextrose-free Sabouraud (Difco; Joshi, K. R., Gavin, J. B., and Bremner, D. A. 1973. The formation of germ tubes by Candida albicans in various peptone media. Sabouraudia. 11: 259-262.) at 37° C. in 96-wells microtiter plates (Costar 3595). Briefly, cells from fresh YPD cultures were harvested and washed twice with sterile water. Washed cells were suspended in dextrose-free Sabouraud at a density of 5×10^3 cells/ml and then immediately distributed to microtiter wells containing an equal volume of dextrose-free Sabouraud supplemented with different concentrations of lipids. After 15 h incubation at 37° C. in an atmospheric incubator without agitation, cells were washed and fixed with a fresh 1% formaldehyde solution. The ability of lipids to inhibit germination was determined by microscopic observations.

[2] = system: Candida albicans ZK3379 strain (CAI-4 HWP1-lacZ); test: C. albicans HWP1-lacZ beta-galactosidase and XTT assays (kinetics of germination inhibition in hyphae inducing media); type: cell-based
Method: Candida albicans ZK3379 strain (CAI-4 HWP1-lacZ; Hogan, D A, Vik A, Kolter R (2004). A Pseudomonas aeruginosa quorum-sensing molecule influences Candida albicans morphology. Mol Microbiol 54: 1212-1223.) was used for beta-galactosidase and XTT assays. Cells from this strain were grown in YPDA at 30° C. to a density of about 1×10^8 cells/ml (hemacytometer). These late exponentially growing cells were then washed twice with water and kept on ice until used. Germination was induced by incubating cells (final density of 5×10^5 cells/ ml) at 37° C. in 2.5 ml of either dextrose-free Sabouraud (Joshi et al., 1973), Lee's (Lee K L, Buckley H R, Campbell C C (1975). An amino acid liquid synthetic medium for the development of mycelial and yeast forms of Candida albicans. Sabouraudia 13: 148-153, Spider (Liu H, Kohler J, Fink Gr (1994). Suppression of hyphal formation in Candida albicans by mutation of a STE12 homolog. Science 266: 1723-1726 or Hypha-Forming Media (Biswas S K, Yokoyama K, Kamei K, Nishimur K, Miyaji M (2001) Inhibition of hyphal growth of Candida albicans by activated lansoprazole, a novel benzimidazole proton pump inhibitor Med Mycol 39: 283-285.), supplemented with FFAs. All lipids were dissolved in ethanol. Assays were performed in duplicate in 24-wells mictotiter plates (Costar 3526) without agitation. After appropriate incubation times (i.e. 0, 2, 4 or 6 h), microtiter plates were centrifuged for 5 min at 2000 rpm (Jouan inc. CR3i) and supernatents, discarded. XTT assays were done immediately and essentially as described (Honraet K, Goetghebeur E, Nelis H J (2005). Comparison of three assays for the quantification of Candida biomass in suspension and CDC reactor grown biofilms. J Microbiol Methods 63: 287-295). For beta-galactosidase assays, microtiter plates were frozen at −80° C. and processed later as described (Kippert F (1995). A rapid permeabilization procedure for accurate quantitative determination of beta-galactosidase activity in yeast cells. FEMS Microbiol Lett 128: 201-206; Hogan et al., 2004) but directly in microtiters plates. Absorbances were measured in 96-well microtiters plates using a microtiter plate reader (Microplate Reader MR600), equipped with filters of 410 nm (beta-galactosidase) and 490 nm (XTT), respectively.
As inhibition of germination of C. albicans by molecules could be the result of early and/or late blocking events, a more comprehensive analysis of the activity of free fatty acids was performed using multiple time points and other germ tube inducing media. Therefore, germination was monitored at 0, 2, 4 and 6 h in dextrose-free Sabouraud, Lee's, Spider and HFM7 (i.e. serum) media using the C. albicans HWP1-lacZ assay: beta-galactosidase measurements should reflect the morphological change from yeast cells to hyphal growth (Hogan et al., 2004). beta-galactosidase results were normalized using the XTT assay (Honraet et al., 2005) to correct for biomass increase. Microscopic observations of cells after 6 h incubation are also presented for each inducing conditions and correlated with beta-galactosidase data (FIG. 2).

A. fumigatus = test: Antifungal assay against A. fumigatus (optical density at 630 nm); type: cell-based; conditions: Aspergillus fumigatus; Sabouraud, 30° C., 40 h; commercial FFA
Method: (§1) Fractionation of Blackcurrant Seed Oil. Journal of the American Oil Chemists Society 65: 755-760). […] Under constant stirring, the mixture was heated to 75° C., or until it became clear, and then cooled slowly to 2° C. After completion of urea crystallization at 2° C. (15 h), the UFFA enriched methanol phase was separated from the urea crystals by centrifugation (5 min) at 1000×g. […] Yields were determined gravimetrically. […] UV detection was used to monitor effluent at 215 nm. Water (10 ml) was added to each of the 45 collected HPLC fractions, and they were then extracted three times with hexane (3×10 ml). […] Antifungal assay using commercial FFA were done in quadruplicates. The antifungal activity was evaluated in 96-well microtiter plates (Costar 3595) using Sabouraud as incubating medium for A. fumigatus and dextrose-free Sabouraud for C. albicans. Spores of A. fumigatus (Jeanine Joly, Université de Montréal) were germinated at 25° C. on slant agar Sabouraud media. They were harvested by washing vigorously slant cultures with 5 ml of 0.9% NaCl. Coarse debris were removed by filtrating the Aspergillus spores suspension through a sterile cotton plugs inserted into a Pasteur pipet. Monodisperse spores suspensions were obtained following brief sonications in a water bath sonicator (Branson 1210). […] Blastospores of the C. albicans SC5314 strain were prepared as for germination inhibition assays (see above). […] Wells were washed three times with Sabouraud before optical reading.

[3] = system: C. albicans SC5314 strain; test: Antifungal assay against C. albicans (optical density at 630 nm); type: cell-based, Candida albicans; conditions: dextrose-free Sabouraud, 37° C., commercial FFA
Method: as §1

in vitro = conditions: human, Toxicity (TC50) PBMCs
Method: (§2) Cytotoxicity was evaluated using Peripheral Blood Mononuclear cells (PBMC) of volunteers donors (Royal Victoria Hospital, Montreal). These cells were purified by the ficoll-Paque PLUS according to the manufacturer (Amersham-Bioscience). PBMC were used at a density of 100 000 cells/ml in RPMI 1640 (Sigma) supplemented with 10% heat-inactivated fetal bovine serum, 0.3 g/L of L-glutamine, 2 g/L sodium carbonate, 100 U/ml of penicillin and 100 μg/ml of streptomycin (Sigma). Assays were done in 96-well microtiter plates (Costar 3595) and the cytotoxicity was evaluated after 24 hours of incubation at 37° C. in a 5% CO2 atmospheric incubator using the LDH Cytotoxicity detection kit, according to the manufacturer (Roche Diagnostic). […] FFA were diluted in ethanol (96%) and no more than 1% ethanol (final concentration) was used in assays. Ethanol (1%) was used as negative control.
(§3) This method measures the release of lactate dehydrogenase (LDH) from the cytosol of damaged cells into the supernatant (Roche Diagnostic).

[4] = system: Peripheral Blood Mononuclear cells (PBMC); test: in vitro; conditions: human, 24 h
Method: as §2, §3

mammalian cells = test: Toxicity for mammalian cells in vitro; type: cell-based; conditions: thousand fold less concentrated solution than 10 mM; Bergsson et al., 2001; data not shown
C. albicans yeast cells = conditions: 10 mM; cited from earlier work
[5] = Candida albicans, SC5314, complete inhibition of germination, 15 h, 37° C.
[6] = Candida albicans, SC5314, same MIC in μg/ml (in brackets)

Compound | MIC [1, 5] [µM] | MIC [1, 6] [µg/mL] | MIC ([1]; complete inhibition of germination, 15 h, 37° C.) [µM] | appearance of germ tubes ([2]; Spider and HFM7 media) | appearance of germ tubes ([2]; dextrose-free Sabouraud and Lee's inducing media) | IC50 (A. fumigatus) [µM] | IC50 ([3]; Candida albicans, SC5314, 40 h) [µM] | IC50 ([3]; 40 h) [µM] | CC50 at 24 h (in vitro) [µM] | CC50 [4] [µM] | activity at inhibiting C. albicans germination ([1]; individual commercial free fatty acids, highest concentration used 81 μM) | germ tube emergence and elongation ([2]; all inducing conditions tested (dextrose-free Sabouraud, Lee's, Spider, HFM7), 0-6 h (FIG. 2)) | TC50, PBMC [4] | toxicity for mammalian cells in vitro (mammalian cells) | killing C. albicans yeast cells (C. albicans yeast cells)
CCCC/C=C\CCCCCCCC(=O)O [Myristoleic acid (C14:1n-5), myristoleic acid] | 9 | 2.04 | 9 | partially inhibited the appearance of germ tubes | strongly inhibited the appearance of germ tubes | 192 | 82 | 81.9 ± 9.2 | 72 | 71.9 ± 6.2 |  |  |  |  | 
CCCCCCCCCC(=O)O [Capric acid (C10:0), capric acid] | 9 | 1.55 |  |  |  | 127 | 182 |  | 1430 ± 32 |  | similarly active to lauric acid | completely inhibited the emergence of germ tubes | about 1.4 mM | not toxic | highly active
